Results published in ChEMBL document CHEMBL2331127, “3D-QSAR and docking studies of pentacycloundecylamines at the sigma-1 (σ1) receptor” (Bioorg Med Chem Lett, 2013).
pIC50, pKi: −log10 of the molar value.

target: Sigma non-opioid intracellular receptor 1 (Rattus norvegicus, UniProt Q9R0C9); test: Displacement of [3H](+)-pentazocine from sigma-1 receptor in rat liver homogenate; assay type: tissue-based
Sequence (Q9R0C9 whole entry): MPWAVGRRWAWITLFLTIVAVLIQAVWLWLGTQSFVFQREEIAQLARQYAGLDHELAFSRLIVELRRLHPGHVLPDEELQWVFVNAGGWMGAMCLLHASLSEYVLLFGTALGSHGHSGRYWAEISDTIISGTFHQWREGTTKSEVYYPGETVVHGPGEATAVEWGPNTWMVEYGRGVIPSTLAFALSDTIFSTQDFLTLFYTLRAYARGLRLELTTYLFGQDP

Compound | pIC50
c1ccc(CNC23OC4C5C6CC(C7C6C4C72)C53)cc1 (stereo not drawn) | 5.75
c1ccc(CCNC23OC4C5C6CC(C7C6C4C72)C53)cc1 (stereo not drawn) | 5.81

target: Sigma non-opioid intracellular receptor 1 (Cavia porcellus, UniProt Q60492); test: Displacement of [3H](+)-pentazocine from sigma-1 receptor in guinea pig brain
Sequence (Q60492 whole entry): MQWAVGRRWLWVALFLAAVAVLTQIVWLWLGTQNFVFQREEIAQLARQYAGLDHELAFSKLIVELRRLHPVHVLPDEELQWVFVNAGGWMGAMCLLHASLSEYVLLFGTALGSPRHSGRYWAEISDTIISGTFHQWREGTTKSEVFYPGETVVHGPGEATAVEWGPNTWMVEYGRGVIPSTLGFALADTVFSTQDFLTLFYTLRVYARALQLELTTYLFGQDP

Compound | pKi
OC12C3C4CC5C6C4C1C6C(C53)N2CCc1cccc(F)c1 (stereo not drawn) | 8.00
OC12C3C4CC5C6C4C1C6C(C53)N2Cc1ccccc1 (stereo not drawn) | 6.99
OC12C3C4CC5C6C4C1C6C(C53)N2Cc1ccc(F)cc1 (stereo not drawn) | 6.97
OC12C3C4CC5C6C4C1C6C(C53)N2CCc1ccccc1 (stereo not drawn) | 7.70
OC12C3C4CC5C6C4C1C6C(C53)N2Cc1ccc(I)cc1 (stereo not drawn) | 7.09
COc1ccc(CN2C3C4C5CC6C7C5C3C7C2(O)C64)cc1 (stereo not drawn) | 6.99
OC12C3C4CC5C6C4C1C6C(C53)N2Cc1ccc(F)c(F)c1 (stereo not drawn) | 6.70
OC12C3C4CC5C6C4C1C6C(C53)N2Cc1ccccc1F (stereo not drawn) | 6.74
OC12C3C4CC5C6C4C1C6C(C53)N2Cc1cccc(Cl)c1 (stereo not drawn) | 6.73
OC12C3C4CC5C6C4C1C6C(C53)N2CCc1cccc(Cl)c1 (stereo not drawn) | 7.68
OC12C3C4CC5C6C4C1C6C(C53)N2CCc1ccc(Br)cc1 (stereo not drawn) | 8.00
OC12C3C4CC5C6C4C1C6C(C53)N2Cc1cccc(C(F)(F)F)c1 (stereo not drawn) | 6.57
O=[N+]([O-])c1cccc(CN2C3C4C5CC6C7C5C3C7C2(O)C64)c1 (stereo not drawn) | 5.96
Cc1cccc(CN2C3C4C5CC6C7C5C3C7C2(O)C64)c1 (stereo not drawn) | 7.01
OC12C3C4CC5C6C4C1C6C(C53)N2CCc1ccc(Cl)c(Cl)c1 (stereo not drawn) | 8.00
OC12C3C4CC5C6C4C1C6C(C53)N2CCCCc1ccccc1 (stereo not drawn) | 8.05
OC12C3C4CC5C6C4C1C6C(C53)N2Cc1ccc(Br)cc1 (stereo not drawn) | 7.07
OC12C3C4CC5C6C4C1C6C(C53)N2CCCc1ccccc1 (stereo not drawn) | 7.68
OC12C3C4CC5C6C4C1C6C(C53)N2Cc1cccc(F)c1 (stereo not drawn) | 6.82
OC12C3C4CC5C6C4C1C6C(C53)N2Cc1cccc(I)c1 (stereo not drawn) | 6.77
OC12C3C4CC5C6C4C1C6C(C53)N2Cc1cccc(Br)c1 (stereo not drawn) | 6.68
